According to paper PMC12040169 (PLOS Biology, 2025):

Test: in vitro
Details: human, hela cells, % viability

Question: Which viability at 28.5 h, 10 µM does the source give for `O=C(NC[C@H]1O[C@@H](CC(=O)N2CCN(c3ccccc3)CC2)[C@H](O)[C@@H]1O)c1ccccc1` [CBK288920] here?
Answer: 108%

Question: With `Cc1onc(-c2ccccc2)c1CNC(=O)c1cccnc1` [CBK144100] as the molecule, how does the viability at 28.5 h, 10 µM read?
Answer: 111%

Question: For `CC(C)(C)c1ccc(-c2cc(C3CCNCC3)n[nH]2)cc1` [CBK270240], which viability at 28.5 h, 10 µM is on record?
Answer: 94%

Question: For `CC(=O)Nc1nc(CN2CCOC(c3ccc(F)cc3)C2)cs1` (stereo not drawn) [CBK305591], which viability at 28.5 h, 10 µM is on record?
Answer: 98.5%

Question: Which viability at 28.5 h, 10 µM does the source give for `O=C(O)C1CCCCC1C(=O)N1CCN(Cc2cccc(Cl)c2)CC1` (stereo not drawn) [CBK270330] here?
Answer: 85%

Question: For `O=C(Cn1cc(Br)ccc1=O)NC1CCN(Cc2ccccc2)CC1` [CBK305671], which viability at 28.5 h, 10 µM is on record?
Answer: 95.6%

Question: Which viability at 28.5 h, 10 µM does the source give for `OCCOc1ccc(Cl)c2cccnc12` [CBK000620] here?
Answer: 78.1%

Question: With `Cc1cc2ncn(CC(=O)N3CCC(F)CC3)c2cc1C` [CBK200266] as the molecule, how does the viability at 28.5 h, 10 µM read?
Answer: 104%

Question: For `COC(=O)c1ccc2c(=O)n(CC3CCCO3)c(SC)nc2c1` (stereo not drawn) [CBK304535], which viability at 28.5 h, 10 µM is on record?
Answer: 108%

Question: Which viability at 28.5 h, 10 µM does the source give for `O=C(NCc1ccc2c(c1)OCO2)C1CN(S(=O)(=O)c2ccccc2)CCN1S(=O)(=O)c1ccccc1` (stereo not drawn) [CBK267059] here?
Answer: 102%

Question: With `COc1ccc(N2CCN(c3cc(-c4ccc(OC(F)(F)F)cc4)ncn3)CC2)cc1OC` [CBK091032] as the molecule, how does the viability at 28.5 h, 10 µM read?
Answer: 94.1%

Question: With `CC(C)c1ccc(CNC(=O)c2ccc(-c3ccoc3)nc2)cc1` [CBK156292] as the molecule, how does the viability at 28.5 h, 10 µM read?
Answer: 91.4%

Question: With `CN(CCCc1cc(-c2cccc(F)c2)n[nH]1)C(=O)c1cnn(C)c1` [CBK305745] as the molecule, how does the viability at 28.5 h, 10 µM read?
Answer: 86.6%

Question: For `CC(C)(C)OC(=O)N1CCN(Cc2ccn(Cc3ccc(S(C)(=O)=O)cc3)c2)CC1` [CBK144936], which viability at 28.5 h, 10 µM is on record?
Answer: 119%

Question: With `O=C1CCN(C(=O)c2ccccn2)CCN1Cc1cccc(F)c1` [CBK284467] as the molecule, how does the viability at 28.5 h, 10 µM read?
Answer: 90.5%

Question: With `COCCNC(=O)c1c(NC(=O)c2ccccc2C)sc2c1CCCC2` [CBK091645] as the molecule, how does the viability at 28.5 h, 10 µM read?
Answer: 83.9%

Question: For `COc1ccc(C2=NN(c3ccc([N+](=O)[O-])cc3)C(=O)/C2=C/NCc2ccc3c(c2)OCO3)cc1` [CBK264598], which viability at 28.5 h, 10 µM is on record?
Answer: 84.1%

Question: For `OC(COCc1ccccc1)CN1CCN(c2ccccc2F)CC1` (stereo not drawn) [CBK074851C], which viability at 28.5 h, 10 µM is on record?
Answer: 92.6%

Question: With `Cc1ccnn1CCC(=O)N1CCCC1c1nc2ccccc2[nH]1` (stereo not drawn) [CBK285178] as the molecule, how does the viability at 28.5 h, 10 µM read?
Answer: 110%

Question: Which viability at 28.5 h, 10 µM does the source give for `CC(c1ccc2c(c1)OCO2)c1cc2c(cc1OCCO)OCO2` (stereo not drawn) [CBK200110] here?
Answer: 98.9%

Question: Which viability at 28.5 h, 10 µM does the source give for `O=C(NC1CCCCC1)c1cc(Br)cnc1NCc1cccnc1` [CBK076439] here?
Answer: 91%

Question: Which viability at 28.5 h, 10 µM does the source give for `Cc1nc(C)c(C(=O)NCCN2CCCCC2C)s1` (stereo not drawn) [CBK282200] here?
Answer: 106%

Question: Which viability at 28.5 h, 10 µM does the source give for `CCCc1cc(C(=O)NC2CCN(Cc3cccc(F)c3)CC2)[nH]n1` [CBK282465] here?
Answer: 100%

Question: Which viability at 28.5 h, 10 µM does the source give for `O=S(=O)(c1ccc(C(F)(F)F)cc1Cl)N1CCCN(Cc2ccc3cccc(O)c3n2)CC1` [CBK063036] here?
Answer: 101%

Question: With `Cc1cc(Br)ccc1S(=O)(=O)Nc1nc(-c2c(F)cccc2Cl)cs1` [CBK200026] as the molecule, how does the viability at 28.5 h, 10 µM read?
Answer: 95.6%

Question: Which viability at 28.5 h, 10 µM does the source give for `C=CCSc1nnc(-c2ccccc2NC(=O)CC)c(O)n1` [CBK266411] here?
Answer: 115%

Question: Which viability at 28.5 h, 10 µM does the source give for `Cc1ccc(F)c(S(=O)(=O)NC(C)Cc2ccccn2)c1` (stereo not drawn) [CBK281427] here?
Answer: 90.5%

Question: For `COc1cc(-c2cn3ccnc3c(N[C@H](CO)C(C)C)n2)cc(OC)c1OC` [CBK066220], which viability at 28.5 h, 10 µM is on record?
Answer: 103%

Question: For `CC(C)(C)c1nnc2sc(-c3cccnc3)nn12` [CBK287289], which viability at 28.5 h, 10 µM is on record?
Answer: 112%

Question: With `COc1ccc(/N=C2\S[C@H]3[C@H]([C@@H](O)[C@H](O)C[C@@H]3C(N)=O)N2Cc2ccc(F)cc2)cc1` [CBK288942] as the molecule, how does the viability at 28.5 h, 10 µM read?
Answer: 90.5%

Question: With `CN1CCN(C(=O)CN(Cc2ccc(Cl)cc2)S(=O)(=O)c2ccc(Br)cc2)CC1` [CBK265771] as the molecule, how does the viability at 28.5 h, 10 µM read?
Answer: 113%

Question: With `Cc1ccc(S(=O)(=O)N(CC(O)CN2CCCCC2)c2ccccc2)cc1` (stereo not drawn) [CBK263570] as the molecule, how does the viability at 28.5 h, 10 µM read?
Answer: 97.7%

Question: For `CC1(C)CC(/N=C(\c2ccccc2)c2ccc(O)cc2O)CC(C)(C)N1` [CBK262004], which viability at 28.5 h, 10 µM is on record?
Answer: 101%

Question: For `O=C(NCCC1=CCCCC1)Nc1ccc2ccccc2c1` [CBK044195], which viability at 28.5 h, 10 µM is on record?
Answer: 104%

Question: With `COc1ccc(C)cc1S(=O)(=O)N(CC(=O)O)c1ccc(C)c(Cl)c1` [CBK269655] as the molecule, how does the viability at 28.5 h, 10 µM read?
Answer: 83.3%

Question: Which viability at 28.5 h, 10 µM does the source give for `O=C(NCCc1cccs1)Nc1ccc(Cl)cc1C(F)(F)F` [CBK044825] here?
Answer: 86.1%

Question: Which viability at 28.5 h, 10 µM does the source give for `O=C(NCc1ccccn1)c1ncoc1-c1ccc(F)cc1` [CBK282352] here?
Answer: 79.6%

Question: With `COc1ccc(C(C)C)cc1-c1cnc2[nH]c(=O)n([C@@H](CO)C(C)C)c2n1` [CBK064495] as the molecule, how does the viability at 28.5 h, 10 µM read?
Answer: 90.3%

Question: For `COc1ccc(CCNC(=O)N(C)C2CCN(C)C2)cc1` (stereo not drawn) [CBK156019], which viability at 28.5 h, 10 µM is on record?
Answer: 100%

Question: With `O=C(Nc1c(F)cc(F)cc1OC1CCNCC1)c1ccccn1` [CBK050274T] as the molecule, how does the viability at 28.5 h, 10 µM read?
Answer: 94.8%

Question: With `CNC(=O)C1(Cc2ccc(-c3cccc(C)c3)cc2)CCN(C(=O)CC(C)(C)C)CC1` [CBK285923] as the molecule, how does the viability at 28.5 h, 10 µM read?
Answer: 86.4%

Question: With `NC[C@H]1CC[C@H](C(=O)NCCN2CCc3ccccc32)CC1` [CBK282723] as the molecule, how does the viability at 28.5 h, 10 µM read?
Answer: 82.7%

Question: Which viability at 28.5 h, 10 µM does the source give for `CN(C)c1nc2c(c(-c3cncc(N)c3)n1)CCCC2` [CBK307503] here?
Answer: 105%

Question: Which viability at 28.5 h, 10 µM does the source give for `COC(=O)c1c(NC(=O)c2cc(C)on2)sc(C(=O)Nc2ccc(Cl)cc2)c1C` [CBK268116] here?
Answer: 89.7%

Question: Which viability at 28.5 h, 10 µM does the source give for `Cn1cncc1CN(CCCn1ccnc1)Cc1ccccc1Cl` [CBK283041] here?
Answer: 84.8%

Question: Which viability at 28.5 h, 10 µM does the source give for `COc1cc(/C=C2\SC(=N)NC2=O)cc(Br)c1OS(=O)(=O)c1ccc(C)cc1` [CBK263609] here?
Answer: 95.1%

Question: For `CN(C)/C=N/c1ncc2ncn(C3CC(O)C(CO)O3)c2n1` (stereo not drawn) [CBK201175], which viability at 28.5 h, 10 µM is on record?
Answer: 90.8%

Question: Which viability at 28.5 h, 10 µM does the source give for `Cc1nc2ccccc2c(=O)n1CC(N)=O` [CBK004145] here?
Answer: 89.8%

Question: For `Fc1cccc2sc(Nc3nc(-c4cccs4)cs3)nc12` [CBK287476], which viability at 28.5 h, 10 µM is on record?
Answer: 85.9%

Question: For `CCOc1ccc(NC(=O)N(CCOC)Cc2cnn(C)c2)cc1Cl` [CBK306697], which viability at 28.5 h, 10 µM is on record?
Answer: 90.3%

Question: For `O=C(OCc1cc([N+](=O)[O-])cc2c1OCOC2)c1ccco1` [CBK297537], which viability at 28.5 h, 10 µM is on record?
Answer: 97.9%

Question: With `CCc1c(C)nc2c(C(=O)N3CCOCC3)cnn2c1C` [CBK162134] as the molecule, how does the viability at 28.5 h, 10 µM read?
Answer: 99.3%

Question: Which viability at 28.5 h, 10 µM does the source give for `Cc1cc(C(F)(F)F)n2nc(C3CCCN3C(=O)C(C)C)cc2n1` (stereo not drawn) [CBK284685] here?
Answer: 93%

Question: With `O=c1scnn1Cc1nc(-c2ccsc2)no1` [CBK306438] as the molecule, how does the viability at 28.5 h, 10 µM read?
Answer: 83.4%

Question: For `Cc1ccc(Cn2ncc3c(NCCCN4CCOCC4)ncnc32)cc1` [CBK077470], which viability at 28.5 h, 10 µM is on record?
Answer: 94.4%

Question: Which viability at 28.5 h, 10 µM does the source give for `CC(C)CCN(Cc1ccc(-c2ccc(S(C)(=O)=O)cc2)nc1)C1CCN(C(=O)OC(C)(C)C)CC1` [CBK165138] here?
Answer: 83.4%

Question: For `Cc1ccc(C(=O)/C=C\Nc2ccc(S(=O)(=O)Nc3cc(C)nc(C)n3)cc2)cc1` [CBK264384], which viability at 28.5 h, 10 µM is on record?
Answer: 124%

Question: Which viability at 28.5 h, 10 µM does the source give for `CC(Cc1nc(-c2cnn(C)n2)cs1)n1cc(Cl)cn1` (stereo not drawn) [CBK304256] here?
Answer: 90.8%

Question: Which viability at 28.5 h, 10 µM does the source give for `Nc1nnc(CSCc2ccc(Cl)cc2Cl)s1` [CBK263471] here?
Answer: 100%

Question: For `Cn1cccc1C(=O)N[C@H]1C[C@@H]2C(=O)N[C@H]3CCN(C(=O)CC(C)(C)C)[C@@H]3C(=O)N2C1` [CBK289271], which viability at 28.5 h, 10 µM is on record?
Answer: 111%

Question: For `O=C(O)c1ccccc1C(=O)N1CCC2(CC1)NCCc1c2[nH]c2ccccc12` [CBK047235], which viability at 28.5 h, 10 µM is on record?
Answer: 83.9%

Question: With `Fc1ccc(-c2c[nH]c([C@@H]3COCCN3Cc3ncc[nH]3)n2)cc1` [CBK289263] as the molecule, how does the viability at 28.5 h, 10 µM read?
Answer: 95.5%

Same assay, conditions: human, hela cells, % viability, bulk resorufin, single well

Question: Which viability at 28.5 h, 10 µM does the source give for `CNCCc1csc2ccc(C)cc12` [CBK026097] here?
Answer: 91.6%
